In patent EP4516309A1, “CRHR1 AGONISTS FOR USE IN THE TREATMENT OF SOCIAL ANXIETY DISORDERS” (Consejo Superior de Investigaciones Cientificas, priority 2023, dated 2025):

Molecular target: T1, inhibitory DREADD (Homo sapiens, UniProt P08173, A203G/Y113C)
T1 construct: host or cells: ILA CRH+ neurons of CRH-Cre mice, Cre-dependent AAV2/8 transduction in vivo
T1 sequence (P08173 1-479 Y113C/A203G): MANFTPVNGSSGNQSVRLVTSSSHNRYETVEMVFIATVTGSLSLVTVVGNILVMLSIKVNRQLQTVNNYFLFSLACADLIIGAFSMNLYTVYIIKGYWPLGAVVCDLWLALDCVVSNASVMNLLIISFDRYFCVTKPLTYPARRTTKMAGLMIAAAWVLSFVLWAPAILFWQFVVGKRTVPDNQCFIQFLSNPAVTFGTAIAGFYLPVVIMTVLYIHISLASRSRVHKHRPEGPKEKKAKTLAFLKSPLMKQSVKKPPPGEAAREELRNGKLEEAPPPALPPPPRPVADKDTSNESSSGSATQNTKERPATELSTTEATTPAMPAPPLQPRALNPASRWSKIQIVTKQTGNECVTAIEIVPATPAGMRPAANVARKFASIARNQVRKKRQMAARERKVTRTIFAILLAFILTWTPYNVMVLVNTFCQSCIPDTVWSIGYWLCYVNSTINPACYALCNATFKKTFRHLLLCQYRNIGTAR
Assay: Social novelty preference test with chemogenetic silencing of ILA CRH cells
Assay type: in vivo, CRH-Cre mice
Settings: CNO 5 mg/kg intra-peritoneally 30 min prior to the learning trial; iDREADD in ILA CRH cells
Experimental: Injection coordinates were the following (in mm from Bregma): AP: 1.65, ML: ±0.1, DV: -2.6. Injections were done bilaterally with 100 nl injected per site. […]
Social novelty preference test. […] Using automatic tracking of the test mice (ANY-Maze, Stoelting), the inventors quantified the time the test mice spent in the immediate area surrounding each cup - and therefore, interacting with each stimulus mice - during learning and recall. Using the interaction time from the recall trial, the inventors calculated a discrimination index for social novelty preference as the following: D! = (time with novel - time with familiar) / total interaction time. […] The inventors also calculated the total time spent interacting with stimulus mice during each trial in order to verify that the sociability drive was not affected. […]

With `C[N+]1([O-])CCN(C2=Nc3cc(Cl)ccc3Nc3ccccc32)CC1` [CNO, clozapine N-oxide] the “discrimination index for social novelty preference” value was “not different from zero” and the “exploration of novel and familiar mice during recall” value was “explored the novel and familiar mice to the same extent”.
